What all share (format): cell-based
The target of one assay is T1, human TLR8 (Homo sapiens, UniProt Q9NR97).
T1 construct: host or cells: HEK-Blue cells
T1 sequence (Q9NR97 27-1041): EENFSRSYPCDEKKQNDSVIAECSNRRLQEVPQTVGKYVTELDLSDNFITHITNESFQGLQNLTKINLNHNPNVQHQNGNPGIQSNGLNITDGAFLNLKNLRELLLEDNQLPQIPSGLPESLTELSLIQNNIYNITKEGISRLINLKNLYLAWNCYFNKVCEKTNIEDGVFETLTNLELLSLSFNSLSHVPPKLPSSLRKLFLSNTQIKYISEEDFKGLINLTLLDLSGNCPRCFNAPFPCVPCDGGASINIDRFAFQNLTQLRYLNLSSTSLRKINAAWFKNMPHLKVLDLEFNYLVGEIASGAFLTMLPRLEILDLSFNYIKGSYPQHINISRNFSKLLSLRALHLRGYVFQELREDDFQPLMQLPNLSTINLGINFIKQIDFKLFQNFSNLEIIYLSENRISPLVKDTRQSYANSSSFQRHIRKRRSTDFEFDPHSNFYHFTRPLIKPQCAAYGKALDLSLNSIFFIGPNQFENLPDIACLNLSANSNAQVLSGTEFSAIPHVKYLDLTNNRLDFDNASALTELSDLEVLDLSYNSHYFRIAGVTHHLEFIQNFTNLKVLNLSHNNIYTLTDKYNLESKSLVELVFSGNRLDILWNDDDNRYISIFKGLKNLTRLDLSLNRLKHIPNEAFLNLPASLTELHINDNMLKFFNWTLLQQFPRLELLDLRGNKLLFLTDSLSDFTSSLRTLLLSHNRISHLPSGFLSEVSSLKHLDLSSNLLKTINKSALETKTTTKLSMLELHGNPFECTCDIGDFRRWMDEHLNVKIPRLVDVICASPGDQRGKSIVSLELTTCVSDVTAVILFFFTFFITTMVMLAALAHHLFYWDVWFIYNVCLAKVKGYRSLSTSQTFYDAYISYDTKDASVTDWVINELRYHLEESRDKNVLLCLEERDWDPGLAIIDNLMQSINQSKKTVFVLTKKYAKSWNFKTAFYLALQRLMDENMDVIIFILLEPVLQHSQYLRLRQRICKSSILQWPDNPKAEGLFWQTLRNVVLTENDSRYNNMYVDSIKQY
As to the kind of experiment: TLR8 inhibition reporter assay (HEK-Blue, SEAP). The settings on record: HEK-Blue cells overexpressing human TLR8, ligand R848 14.25 μM, 22 hour incubation. The gist of the method:
(§1)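 HEK-Blue cells expressing human TLR7, TLR8 or TLR9 with NF-κB/AP-1-driven SEAP reporter; compounds 0.85 nM–50 μM, pre-treated 60 min. Stimulation: gardiquimod 2.5 μM (TLR7), R848 14.25 μM (TLR8), ODN2006 200 nM (TLR9); SEAP read after 22 h at 37 °C. Percent inhibition normalized between agonist+DMSO and known-inhibitor wells.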

For another assay, the target named is T2, human TLR7 (Homo sapiens, UniProt Q9NYK1).
T2 construct: host or cells: HEK-Blue cells
T2 sequence (Q9NYK1 27-1049): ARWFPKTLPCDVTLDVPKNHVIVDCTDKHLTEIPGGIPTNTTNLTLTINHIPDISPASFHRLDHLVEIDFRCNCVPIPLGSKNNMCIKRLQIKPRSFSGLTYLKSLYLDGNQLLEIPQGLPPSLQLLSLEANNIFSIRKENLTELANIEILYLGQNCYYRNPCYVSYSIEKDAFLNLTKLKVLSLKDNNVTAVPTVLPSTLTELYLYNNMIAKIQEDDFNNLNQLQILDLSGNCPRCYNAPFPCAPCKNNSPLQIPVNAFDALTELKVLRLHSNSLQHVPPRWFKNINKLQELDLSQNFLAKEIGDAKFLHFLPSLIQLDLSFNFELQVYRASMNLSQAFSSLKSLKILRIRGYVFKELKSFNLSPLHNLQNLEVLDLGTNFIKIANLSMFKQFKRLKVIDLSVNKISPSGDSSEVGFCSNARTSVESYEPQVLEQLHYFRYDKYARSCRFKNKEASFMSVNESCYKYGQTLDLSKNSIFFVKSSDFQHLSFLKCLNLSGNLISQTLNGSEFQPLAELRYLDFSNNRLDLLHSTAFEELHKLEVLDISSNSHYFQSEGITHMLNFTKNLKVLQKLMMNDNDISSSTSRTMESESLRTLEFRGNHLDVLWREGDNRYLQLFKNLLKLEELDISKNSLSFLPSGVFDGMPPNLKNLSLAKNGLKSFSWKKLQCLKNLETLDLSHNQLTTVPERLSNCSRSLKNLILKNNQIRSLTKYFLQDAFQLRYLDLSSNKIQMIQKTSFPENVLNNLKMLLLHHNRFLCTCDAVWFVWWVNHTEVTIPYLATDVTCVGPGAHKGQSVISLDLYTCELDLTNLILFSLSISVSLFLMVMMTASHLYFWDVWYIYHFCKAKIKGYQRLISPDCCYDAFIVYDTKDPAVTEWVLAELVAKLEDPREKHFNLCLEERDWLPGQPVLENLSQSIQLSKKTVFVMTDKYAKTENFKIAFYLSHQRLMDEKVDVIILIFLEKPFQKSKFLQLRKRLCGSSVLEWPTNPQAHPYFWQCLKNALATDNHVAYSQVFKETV
The experiment in a line: TLR7 inhibition reporter assay (HEK-Blue, SEAP). The settings on record: HEK-Blue cells overexpressing human TLR7, ligand gardiquimod 2.5 μM, 22 hour incubation. The gist of the method: as §1
A general note: Reporter assays use an easily measured gene product as a stand-in for the process of interest.

Another assay deals with T3, human TLR9 (Homo sapiens, UniProt Q9NR96).
T3 construct: host or cells: HEK-Blue cells
T3 sequence (Q9NR96 26-1032): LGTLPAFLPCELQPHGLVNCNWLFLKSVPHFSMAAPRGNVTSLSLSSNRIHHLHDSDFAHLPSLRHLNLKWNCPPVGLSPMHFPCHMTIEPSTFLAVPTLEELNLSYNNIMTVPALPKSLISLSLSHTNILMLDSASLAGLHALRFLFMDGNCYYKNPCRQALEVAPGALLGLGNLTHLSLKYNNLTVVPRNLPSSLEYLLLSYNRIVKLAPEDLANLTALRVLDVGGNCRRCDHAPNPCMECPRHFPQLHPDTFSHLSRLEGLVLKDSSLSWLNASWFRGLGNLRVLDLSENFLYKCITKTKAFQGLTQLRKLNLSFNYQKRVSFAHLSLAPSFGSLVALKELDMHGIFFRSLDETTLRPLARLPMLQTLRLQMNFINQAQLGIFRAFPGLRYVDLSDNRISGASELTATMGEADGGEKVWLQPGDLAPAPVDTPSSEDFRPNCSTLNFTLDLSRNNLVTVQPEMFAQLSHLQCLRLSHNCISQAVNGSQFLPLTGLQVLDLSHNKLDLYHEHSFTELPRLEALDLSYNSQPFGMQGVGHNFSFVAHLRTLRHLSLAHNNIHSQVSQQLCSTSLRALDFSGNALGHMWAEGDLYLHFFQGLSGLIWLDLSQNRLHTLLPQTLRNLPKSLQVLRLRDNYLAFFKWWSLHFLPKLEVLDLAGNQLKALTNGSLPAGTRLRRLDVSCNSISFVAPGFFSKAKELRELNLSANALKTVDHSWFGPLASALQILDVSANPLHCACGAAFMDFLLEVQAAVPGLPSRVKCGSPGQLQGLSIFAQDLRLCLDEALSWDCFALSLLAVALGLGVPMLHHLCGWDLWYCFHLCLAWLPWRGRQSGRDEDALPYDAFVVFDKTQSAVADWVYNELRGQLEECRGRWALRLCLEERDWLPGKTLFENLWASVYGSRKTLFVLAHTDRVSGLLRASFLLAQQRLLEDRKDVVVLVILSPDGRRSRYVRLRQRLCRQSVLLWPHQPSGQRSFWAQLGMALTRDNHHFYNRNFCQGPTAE
The experiment in a line: TLR9 inhibition reporter assay (HEK-Blue, SEAP). Conditions: HEK-Blue cells overexpressing human TLR9, ligand ODN2006 200 nM, 22 hour incubation. The gist of the method:
as §1

The results in this text go back to patent publication US20250177363A1, “SUBSTITUTED IMIDAZOPYRIDINYL COMPOUNDS USEFUL AS INHIBITORS OF TLR9” (Bristol-Myers Squibb Company, priority 2022, published 2025).

Each structure is given as a SMILES string. Where only a bound is given, the exact number is not on record here.

One may read the IC50 as the concentration needed to halve the response being measured. For `Cn1c(-c2ccc(S(C)(=O)=O)cc2)nc2ccc(-c3ccc(N4CCC5(CC4)CN(CC(C)(C)O)C5)cc3)nc21` [Example 63, 2-methyl-1-(7-(4-(3-methyl-2-(4-(methylsulfonyl)phenyl)-3H-imidazo[4,5-b]pyridin-5-yl)phenyl)-2,7-diazaspiro[3.5]nonan-2-yl)propan-2-ol], the IC50 on human TLR8 was determined as 44 µM; against human TLR7, 4.2 µM; against human TLR9, 0.55 µM.
The corresponding values for `COc1ccc(-c2nc3c(C)cc(-c4ccc(N5CC6(CN(CC(C)C)C6)C5)cc4)nc3n2C)cc1OC` [Example 64, 2-(3,4-dimethoxyphenyl)-5-(4-(6-isobutyl-2,6-diazaspiro[3.3]heptan-2-yl)phenyl)-3,7-dimethyl-3H-imidazo[4,5-b]pyridine] are 9.8 µM, 6.3 µM and 1.4 µM.
The corresponding values for `CC(C)N1CC2(CN(c3ccc(-c4ccc5nc(-c6ccc(S(C)(=O)=O)cc6)n(C)c5n4)cc3)C2)C1` [Example 65, 5-(4-(6-isopropyl-2,6-diazaspiro[3.3]heptan-2-yl)phenyl)-3-methyl-2-(4-(methylsulfonyl)phenyl)-3H-imidazo[4,5-b]pyridine] are 3 µM, > 50 µM and 0.74 µM.
Consider `CC(C)CN1CC2(C1)CN(c1ccc(-c3ccc4nc(-c5ccc(S(C)(=O)=O)cc5)n(C)c4n3)cc1)C2` [Example 66, 5-(4-(6-isobutyl-2,6-diazaspiro[3.3]heptan-2-yl)phenyl)-3-methyl-2-(4-(methylsulfonyl)phenyl)-3H-imidazo[4,5-b]pyridine], for which the figures for the IC50 at human TLR8, on human TLR7 and on human TLR9 were > 25 µM, > 50 µM and 0.57 µM, respectively.
